Laboratory results as given in BindingDB's records for doi:10.1016/0006-2952(92)90616-q (National Institutes of Diabetes and Digestive and Kidney …, 1992).

Assays:
Adenosine receptor A2a = Adenosine receptor A2a (Rattus norvegicus, UniProt P30543)
Adenosine receptor A1 = biological target: T1, Adenosine receptor A1 (Rattus norvegicus, UniProt P25099)
T1 sequence (P25099 whole entry): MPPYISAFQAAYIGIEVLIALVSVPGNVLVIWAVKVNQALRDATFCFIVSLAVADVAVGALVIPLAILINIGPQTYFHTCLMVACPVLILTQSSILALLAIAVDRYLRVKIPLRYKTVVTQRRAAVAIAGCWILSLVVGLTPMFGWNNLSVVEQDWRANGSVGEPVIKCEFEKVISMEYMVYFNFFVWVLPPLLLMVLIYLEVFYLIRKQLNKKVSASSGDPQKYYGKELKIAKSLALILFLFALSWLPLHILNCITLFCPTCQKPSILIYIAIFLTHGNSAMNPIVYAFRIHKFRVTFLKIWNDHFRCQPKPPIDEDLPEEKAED

Sequence of Adenosine receptor A2a (P30543 whole entry): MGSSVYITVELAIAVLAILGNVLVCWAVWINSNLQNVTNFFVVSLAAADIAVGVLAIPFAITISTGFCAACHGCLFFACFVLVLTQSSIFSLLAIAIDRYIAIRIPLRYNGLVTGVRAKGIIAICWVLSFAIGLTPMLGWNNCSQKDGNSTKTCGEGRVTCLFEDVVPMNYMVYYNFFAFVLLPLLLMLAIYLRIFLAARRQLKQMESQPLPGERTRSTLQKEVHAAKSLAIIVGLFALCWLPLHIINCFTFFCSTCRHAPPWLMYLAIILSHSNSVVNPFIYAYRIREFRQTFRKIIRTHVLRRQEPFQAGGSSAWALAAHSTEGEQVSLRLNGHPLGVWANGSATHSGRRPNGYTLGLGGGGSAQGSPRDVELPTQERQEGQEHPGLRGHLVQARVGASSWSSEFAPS

| SMILES | Ki (Adenosine receptor A2a) [µM] | Ki (Adenosine receptor A1) [µM] |
| --- | --- | --- |
| OC[C@H]1O[C@@H](n2cnc3c(NC4CCCC4)ncnc32)[C@H](O)[C@@H]1O | 0.51 | – |
| CSC[C@H]1O[C@@H](n2cnc3c(NC4CCCC4)nc(F)nc32)[C@H](O)[C@@H]1O [2-Fluoro-5'-Methylthio Adenosine] | 0.95 | 0.084 |
| Nc1nc(F)nc2c1ncn2[C@@H]1O[C@H](CO)[C@@H](O)[C@H]1O [2-FluoroAdo] | 0.028 | 0.0059 |
| Nc1ncnc2c1ncn2[C@@H]1O[C@H](Cl)[C@@H](O)[C@H]1O [5'-Chloro Adenosine] | 0.14 | 0.02 |
| CSC[C@H]1O[C@@H](n2cnc3c(NC4CCCC4)ncnc32)[C@H](O)[C@@H]1O [5'-Methylthio Adenosine] | 1.18 | 0.243 |
| CCNC(=O)C1OC(n2cnc3c(NC4CCCCC4)ncnc32)C(O)C1O (stereo not drawn) [N6-CyclohexylNECA] | 0.17 | 0.00043 |
| O[C@@H]1[C@H](O)[C@@H](Cl)O[C@H]1n1cnc2c(NC3CCCC3)ncnc21 [N6-Cyclopentyl-5'chloro Adenosine] | 1.36 | 0.00063 |
